Like-named read-outs stand apart in the source and are kept apart here.
Assays:
Format in all cases: cell-based, human
[1] = system: Daudi cells; test: Cell proliferation experiment, Daudi; details: Homo sapiens, Daudi, Daudi cells; read-out: Inhibitory activity IC50 on Daudi
Procedure: (§1) Reagents: RPMI-1640 medium, McCoy's 5A medium, IMDM medium, MEM medium, L-15 medium, fetal bovine serum. Penicillin-Streptomycin double antibody, trypsin, etc., 2-mercaptoethanol, NEAA, pyruvate, etc.
(§2) The cells were cultured in conventional ways, and the cells should be passed at least 2 generations before plating. Cells at the logarithmic growth phase were collected, prepared into single cell suspensions and counted. The concentration of cells was adjusted to the desired concentration, and cells were inoculated into a 96-well cell culture plate at 100 μl per well. 100 μL of complete medium of the test compound were added to each well, set up 2 duplicate wells for each concentration, and diluted with a 5-fold gradient, and continued to culture for 72 h. All cells were subjected to IC50 test for corresponding samples. The experimental results are shown in Test Example 4.
(§3) The fluorescence intensity of each well was detected using the Alarm blue method, and IC50 was calculated.
(§4) IC50 was calculated according to the following formula:
(§5) Y=Max+(Min−Max)/[1+(X/IC50)×Slope]
(§6) wherein Min, Max and Slope represent the minimum, maximum and slope respectively.

[2] = system: MV4;11 cells; test: Cell proliferation experiment (Alamar blue, 72 h), MV4;11; details: Homo sapiens
Procedure: as §1, §2, §3, §4, §5, §6

[3] = system: MDA-MB-231 cells; test: Cell proliferation experiment, MDA-MB-231; details: Homo sapiens, MDA-MB-231, MDA-MB-231 cells; read-out: Inhibitory activity IC50 on MDA-MB-231
Procedure: as §1, §2, §3, §4, §5, §6

[4] = system: NCIH82 cells; test: Cell proliferation experiment, NCI-H82; details: Homo sapiens, NCI-H82, NCI-H82 cells; read-out: Inhibitory activity IC50 on NCI-H82
Procedure: as §1, §2, §3, §4, §5, §6

[5] = MV4-11, MV4;11 cells, read-out: Inhibitory activity IC50 on MV4;11

CC[C@@H]1C(=O)N(C)c2cnc(Nc3ccc(C(=O)N[C@H]4CC[C@@H](NC5CCN(CCC#Cc6cccc7c6CN(C6CCC(=O)NC6=O)C7=O)CC5)CC4)cc3OC)nc2N1C1CCCC1 (stereo partly shown) [UB-180934]
IC50 [1]: 0.01 to 0.1 µM | IC50 ([2]; MV4-11, 72 h, MV4;11 cells, 72 h, read-out: Inhibitory activity IC50 of tested compounds on MV4;11 cells): ≤ 0.1 µM | IC50 [2, 5]: 0.01 to 0.1 µM | IC50 [3]: 0.1 to 1 µM

CC[C@@H]1C(=O)N(C)c2cnc(Nc3ccc(-c4cn([C@H]5CC[C@@H](NCCOCCCC#Cc6ccc7c(c6)CN(C6CCC(=O)NC6=O)C7=O)CC5)nn4)cc3OC)nc2N1C1CCCC1 (stereo partly shown) [UB-180993]
IC50 [1]: 0.01 to 0.1 µM | IC50 [2, 5]: 0.01 to 0.1 µM | IC50 [3]: 0.01 to 0.1 µM

CC[C@@H]1C(=O)N(C)c2cnc(Nc3ccc(-c4cn([C@H]5CC[C@@H](NCCCOCCC#Cc6ccc7c(c6)CN(C6CCC(=O)NC6=O)C7=O)CC5)nn4)cc3OC)nc2N1C1CCCC1 (stereo partly shown) [UB-180999]
IC50 [1]: 0.01 to 0.1 µM | IC50 [2, 5]: < 0.01 µM | IC50 [3]: 0.01 to 0.1 µM

CC[C@@H]1C(=O)N(C)c2cnc(Nc3ccc(-c4cn([C@H]5CC[C@@H](NCCOCCCC#Cc6cccc7c6CN(C6CCC(=O)NC6=O)C7=O)CC5)nn4)cc3OC)nc2N1C1CCCC1 (stereo partly shown) [UB-180992]
IC50 [1]: 0.01 to 0.1 µM | IC50 [2, 5]: < 0.01 µM | IC50 [3]: 0.01 to 0.1 µM

CC[C@@H]1C(=O)N(C)c2cnc(Nc3ccc(-c4cn([C@H]5CC[C@@H](N(CCOCCC#Cc6cccc7c6CN(C6CCC(=O)NC6=O)C7=O)C(=O)OC(C)C(C)SSC[C@@H](NC(=O)[C@@H](CC(=O)O)NC(=O)[C@@H](CC(=O)O)NC(=O)[C@@H](CCCNC(=N)N)NC(=O)[C@@H](CC(=O)O)NC(=O)CC[C@H](NC(=O)c6ccc(NCc7cnc8nc(N)[nH]c(=O)c8n7)cc6)C(=O)O)C(=O)O)CC5)nn4)cc3OC)nc2N1C1CCCC1 (stereo partly shown) [UB-180979]
IC50 [1]: 0.01 to 0.1 µM | IC50 [2, 5]: 0.01 to 0.1 µM | IC50 [3]: 0.1 to 1 µM

CC[C@@H]1C(=O)N(C)c2cnc(Nc3ccc(-c4cn([C@H]5CC[C@@H](NCCCCCC#Cc6cccc7c6CN(C6CCC(=O)NC6=O)C7=O)CC5)nn4)cc3OC)nc2N1C1CCCC1 (stereo partly shown) [UB-180977]
IC50 [1]: 0.01 to 0.1 µM | IC50 [2, 5]: < 0.01 µM | IC50 [3]: < 0.01 µM

CC[C@@H]1C(=O)N(C)c2cnc(Nc3ccc(C(=O)N[C@H]4CC[C@@H](NCCCCCC#Cc5cccc6c5CN(C5CCC(=O)NC5=O)C6=O)CC4)cc3OC)nc2N1C1CCCC1 (stereo partly shown) [UB-180978]
IC50 [1]: 0.01 to 0.1 µM | IC50 [2, 5]: < 0.01 µM | IC50 [3]: < 0.01 µM

CC[C@@H]1C(=O)N(C)c2cnc(Nc3ccc(-c4cn([C@H]5CC[C@@H](NCCOCCC#Cc6ccc7c(c6)CN(C6CCC(=O)NC6=O)C7=O)CC5)nn4)cc3OC)nc2N1C1CCCC1 (stereo partly shown) [UB-181004]
IC50 [1]: 0.01 to 0.1 µM | IC50 [2, 5]: < 0.01 µM | IC50 [3]: 0.01 to 0.1 µM

CC[C@@H]1C(=O)N(C)c2cnc(Nc3ccc(-c4cn(CCCCCCNCCC#Cc5cccc6c5CN(C5CCC(=O)NC5=O)C6=O)nn4)cc3OC)nc2N1C1CCCC1 (stereo partly shown) [UB-180949]
IC50 [1]: 0.01 to 0.1 µM | IC50 [2, 5]: < 0.01 µM | IC50 [3]: 0.01 to 0.1 µM

O=C1CCC(N2Cc3cc(C#CCCNCCOCCOCCn4cc(-c5ccc(Nc6ncc7c(n6)-c6ccc(Cl)cc6C(c6c(F)cccc6F)=NC7)cc5)nn4)ccc3C2=O)C(=O)N1 (stereo not shown) [UB-181012]
IC50 [4]: > 1 µM | IC50 [1]: > 1 µM | IC50 [2, 5]: 0.1 to 1 µM

O=C1CCC(N2Cc3cc(NC(=O)CNCCOCCOCCOCCNC(=O)[C@]4(Cc5cccc(Nc6nccs6)n5)CC[C@@H](Oc5cccc(Cl)c5F)CC4)ccc3C2=O)C(=O)N1 (stereo partly shown) [UB-180953]
IC50 [4]: > 1 µM | IC50 [1]: > 1 µM | IC50 [2, 5]: 0.1 to 1 µM

O=C1CCC(N2Cc3cc(C#CCCNCCOCCOCCNC(=O)[C@]4(Cc5cccc(Nc6nccs6)n5)CC[C@@H](Oc5cccc(Cl)c5F)CC4)ccc3C2=O)C(=O)N1 (stereo partly shown) [UB-181015]
IC50 [4]: > 1 µM | IC50 [1]: > 1 µM | IC50 [2, 5]: 0.1 to 1 µM

O=C1CCC(N2Cc3c(C#CCCNCCOCCOCCNC(=O)[C@]4(Cc5cccc(Nc6nccs6)n5)CC[C@@H](Oc5cccc(Cl)c5F)CC4)cccc3C2=O)C(=O)N1 (stereo partly shown) [UB-181014]
IC50 [4]: > 1 µM | IC50 [1]: > 1 µM | IC50 [2, 5]: 0.1 to 1 µM

CCNC(=O)C#Cc1ccc2c(c1)NC(=O)/C2=C(\Nc1ccc(CNCCOCCOCCOCCOCC(=O)Nc2ccc3c(c2)CN(C2CCC(=O)NC2=O)C3=O)cc1)c1ccccc1 (stereo not shown) [UB-180963]
IC50 [4]: > 1 µM | IC50 [1]: > 1 µM | IC50 [2, 5]: 0.01 to 0.1 µM

O=C1CCC(N2Cc3cc(NC(=O)CNCCCCOCCCCn4cc(-c5ccc(Nc6ncc7c(n6)-c6ccc(Cl)cc6C(c6c(F)cccc6F)=NC7)cc5)nn4)ccc3C2=O)C(=O)N1 (stereo not shown) [UB-181011]
IC50 [4]: > 1 µM | IC50 [1]: 0.01 to 0.1 µM | IC50 [2, 5]: 0.1 to 1 µM

CCNC(=O)C#Cc1ccc2c(c1)NC(=O)/C2=C(\Nc1ccc(CNCCOCCOCCC(=O)N[C@H](C(=O)N2C[C@H](O)C[C@H]2C(=O)NCc2ccc(-c3scnc3C)cc2)C(C)(C)C)cc1)c1ccccc1 [UB-180951]
IC50 [4]: 0.1 to 1 µM | IC50 [1]: > 1 µM | IC50 [2, 5]: 0.1 to 1 µM

CC[C@@H]1C(=O)N(C)c2cnc(Nc3ccc(-c4cn([C@H]5CC[C@@H](NCCCOCCC#Cc6cccc7c6CN(C6CCC(=O)NC6=O)C7=O)CC5)nn4)cc3OC)nc2N1C1CCCC1 (stereo partly shown) [UB-180998]
IC50 [1]: 0.01 to 0.1 µM | IC50 [2, 5]: < 0.01 µM | IC50 [3]: 0.01 to 0.1 µM

CCNC(=O)C#Cc1ccc2c(c1)NC(=O)/C2=C(\Nc1ccc(CNCCOCCOCCOCCC(=O)Nc2cccc3c2CN(C2CCC(=O)NC2=O)C3=O)cc1)c1ccccc1 (stereo not shown) [UB-180971]
IC50 [4]: > 1 µM | IC50 [1]: > 1 µM | IC50 [2, 5]: 0.1 to 1 µM

O=C1CCC(N2Cc3cc(C#CCCNCCOCCOCCOCCn4cc(-c5ccc(Nc6ncc7c(n6)-c6ccc(Cl)cc6C(c6c(F)cccc6F)=NC7)cc5)nn4)ccc3C2=O)C(=O)N1 (stereo not shown) [UB-180965]
IC50 [4]: 0.1 to 1 µM | IC50 [1]: > 1 µM | IC50 [2, 5]: 0.1 to 1 µM

O=C1CCC(N2Cc3cc(NC(=O)CCNCCOCCOCCn4cc([C@]5(Cc6cccc(Nc7nccs7)n6)CC[C@@H](Oc6cccc(Cl)c6F)CC5)nn4)ccc3C2=O)C(=O)N1 (stereo partly shown) [UB-180994]
IC50 [4]: > 1 µM | IC50 [1]: > 1 µM | IC50 [2, 5]: 0.1 to 1 µM

O=C1CCC(N2Cc3cc(NC(=O)CCOCCOCCOCCN[C@H]4CC[C@@H](NC(=O)c5ccc(Nc6ncc7c(n6)-c6ccc(Cl)cc6C(c6c(F)cccc6F)=NC7)cc5)CC4)ccc3C2=O)C(=O)N1 (stereo partly shown) [UB-181006]
IC50 [4]: > 1 µM | IC50 [1]: > 1 µM | IC50 [2, 5]: > 1 µM

O=C1CCC(N2Cc3c(NC(=O)CCCCCCCCCN[C@H]4CC[C@@H](n5cc(-c6ccc(Nc7ncc8c(n7)-c7ccc(Cl)cc7C(c7c(F)cccc7F)=NC8)cc6)nn5)CC4)cccc3C2=O)C(=O)N1 (stereo partly shown) [UB-180996]
IC50 [4]: > 1 µM | IC50 [1]: > 1 µM | IC50 [2, 5]: > 1 µM

O=C1CCC(N2Cc3c(NC(=O)CCCCCCCCCNCCn4cc(-c5ccc(Nc6ncc7c(n6)-c6ccc(Cl)cc6C(c6c(F)cccc6F)=NC7)cc5)nn4)cccc3C2=O)C(=O)N1 (stereo not shown) [UB-180990]
IC50 [4]: > 1 µM | IC50 [1]: > 1 µM | IC50 [2, 5]: 0.1 to 1 µM

CCNC(=O)C#Cc1ccc2c(c1)NC(=O)/C2=C(\Nc1ccc(CNCCOCCOCCC(=O)Nc2cccc3c2CN(C2CCC(=O)NC2=O)C3=O)cc1)c1ccccc1 (stereo not shown) [UB-180964]
IC50 [4]: > 1 µM | IC50 [1]: > 1 µM | IC50 [2, 5]: 0.1 to 1 µM

O=C1CCC(N2Cc3c(NC(=O)CNCCOCCN4CCC(n5cc(-c6ccc(Nc7ncc8c(n7)-c7ccc(Cl)cc7C(c7c(F)cccc7F)=NC8)cc6)nn5)CC4)cccc3C2=O)C(=O)N1 (stereo not shown) [UB-180945]
IC50 [4]: > 1 µM | IC50 [1]: > 1 µM | IC50 [2, 5]: 0.1 to 1 µM

O=C1CCC(N2Cc3cc(NC(=O)CCNCCCOCCCCn4cc(-c5ccc(Nc6ncc7c(n6)-c6ccc(Cl)cc6C(c6c(F)cccc6F)=NC7)cc5)nn4)ccc3C2=O)C(=O)N1 (stereo not shown) [UB-181000]
IC50 [4]: > 1 µM | IC50 [1]: > 1 µM | IC50 [2, 5]: > 1 µM

O=C1CCC(N2Cc3c(C#CCCNCCOCCOCCOCCn4cc(-c5ccc(Nc6ncc7c(n6)-c6ccc(Cl)cc6C(c6c(F)cccc6F)=NC7)cc5)nn4)cccc3C2=O)C(=O)N1 (stereo not shown) [UB-180974]
IC50 [4]: > 1 µM | IC50 [1]: > 1 µM | IC50 [2, 5]: 0.1 to 1 µM

— US20230210999A1, “TARGETED PROTEASE DEGRADATION (TED) PLATFORM” (EUBULUS BIOTHERAPEUTICS INC., priority 2020, published 2023)
